Earlier results in publication PMC11345841, “Exploring 2-Sulfonylpyrimidine Warheads as Acrylamide Surrogates for Targeted Covalent Inhibition: A BTK Story” (Journal of Medicinal Chemistry, 2024).
Where two headings read alike, the source gives them in different places.

Tested on: 468 human kinases
Details: cited from earlier work; for %Control: @1000nM, ref Buhimschi et al. 2018; for Percent of Control: ref Buhimschi/Crews

C=CC(=O)N1CCC[C@@H](n2nc(-c3ccc(Oc4ccccc4)cc3)c3c(N)ncnc32)C1 [Compound 1g, Ibrutinib, reference compound]
number of kinases with ≥90 inhibition belonging to the TK family (including BTK) (1 μM): 36 kinases | number of kinases with ≥90 inhibition out of 468 (1 μM): 39 kinases | %Control (ABL1(E255K)-phosphorylated): 71% | %Control (ABL1(F317I)-nonphosphorylated): 30% | %Control (ABL1(F317L)-nonphosphorylated): 25% | %Control (ABL1(F317L)-phosphorylated): 49% | %Control (ABL1(H396P)-nonphosphorylated): 18% | %Control (ABL1(Q252H)-nonphosphorylated): 6.4% | %Control (ABL1(Q252H)-phosphorylated): 67% | %Control (ABL1(T315I)-nonphosphorylated): 100% | %Control (ABL1-nonphosphorylated): 9% | %Control (ABL1-phosphorylated): 69% | %Control (ABL2): 43% | %Control (ALK(C1156Y)): 91% | %Control (ALK(L1196M)): 96% | %Control (BMX): 38% | %Control (BRK): 1.4% | %Control (BTK): 0% | %Control (CSK): 2.4% | %Control (DDR2): 100% | %Control (EGFR(E746-A750del)): 5.1% | %Control (EGFR(G719C)): 0.35% | %Control (EGFR(G719S)): 0.45% | %Control (EGFR(L747-E749del, A750P)): 0.3% | %Control (EGFR(L747-S752del, P753S)): 12% | %Control (EGFR(L747-T751del,Sins)): 1.4% | %Control (EGFR(L858R)): 1.4% | %Control (EGFR(L858R,T790M)): 6.9% | %Control (EGFR(L861Q)): 0.1% | %Control (EGFR(S752-I759del)): 0% | %Control (EGFR(T790M)): 0.15% | %Control (EGFR): 0% | %Control (EPHA2): 96% | %Control (EPHA5): 100% | %Control (EPHA7): 100% | %Control (EPHA8): 78% | %Control (EPHB2): 100% | %Control (EPHB3): 89% | %Control (EPHB4): 100% | %Control (EPHB6): 8.6% | %Control (ERBB2): 0% | %Control (ERBB3): 0% | %Control (FAK): 93% | %Control (FER): 95% | %Control (FES): 100% | %Control (FGFR1): 42% | %Control (FGFR2): 42% | %Control (FGFR3(G697C)): 35% | %Control (FGFR3): 45% | %Control (FGFR4): 100% | %Control (FGR): 10% | %Control (FLT3(D835H)): 18% | %Control (FLT3(D835V)): 1.9% | %Control (FLT3(D835Y)): 44% | %Control (FLT3(K663Q)): 38% | %Control (FLT3(N841I)): 31% | %Control (FLT3(R834Q)): 54% | %Control (FLT3-autoinhibited): 94% | %Control (FLT3): 26% | %Control (FLT4): 38% | %Control (FRK): 11% | %Control (FYN): 5.3% | %Control (HCK): 0.3% | %Control (IGF1R): 100% | %Control (INSR): 87% | %Control (INSRR): 96% | %Control (ITK): 6.8% | %Control (JAK1(JH1domain-catalytic)): 100% | %Control (JAK1(JH2domain-pseudokinase)): 91% | %Control (JAK2(JH1domain-catalytic)): 87% | %Control (JAK3(JH1domain-catalytic)): 0% | %Control (KIT(A829P)): 21% | %Control (KIT(D816H)): 78% | %Control (KIT(L576P)): 42% | %Control (KIT(V559D)): 31% | %Control (KIT(V559D,T670I)): 94% | %Control (KIT(V559D,V654A)): 91% | %Control (KIT): 57% | %Control (LCK): 0.2% | %Control (LYN): 9.5% | %Control (MERTK): 74% | %Control (MET(M1250T)): 56% | %Control (MET(Y1235D)): 87% | %Control (PDGFRA): 48% | %Control (PDGFRB): 35% | %Control (RET(M918T)): 14% | %Control (RET(V804M)): 72% | %Control (RET): 9.3% | %Control (ROS1): 97% | %Control (SRC): 3.2% | %Control (SYK): 91% | %Control (TEC): 1.9% | %Control (TIE1): 61% | %Control (TIE2): 58% | %Control (TNK1): 23% | %Control (TNK2): 35% | %Control (TRKB): 82% | %Control (TXK): 3.8% | %Control (TYK2(JH1domain-catalytic)): 89% | %Control (TYRO3): 96% | %Control (YES): 2.6% | %Control (ZAP70): 77% | Percent of Control (ABL1(F317I)-nonphosphorylated): 30% | Percent of Control (ABL1(F317I)-phosphorylated): 67% | Percent of Control (ABL1(F317L)-nonphosphorylated): 25% | Percent of Control (ABL1(F317L)-phosphorylated): 49% | Percent of Control (ABL1(H396P)-nonphosphorylated): 18% | Percent of Control (ABL1(Q252H)-nonphosphorylated): 6.4% | Percent of Control (ABL1(Q252H)-phosphorylated): 67% | Percent of Control (ABL1(Y253F)-phosphorylated): 49% | Percent of Control (ABL1-nonphosphorylated): 9% | Percent of Control (ABL2): 43% | Percent of Control (ASK2 (MAP3K6)): 54% | Percent of Control (BLK): 0.1% | Percent of Control (BMX): 38% | Percent of Control (BRAF(V600E)): 59% | Percent of Control (BRK (PTK6)): 1.4% | Percent of Control (BTK): 0% | Percent of Control (CDK2): 66% | Percent of Control (CSK): 2.4% | Percent of Control (CSNK1E): 44% | Percent of Control (CTK (MATK)): 66% | Percent of Control (EGFR(E746-A750del)): 5.1% | Percent of Control (EGFR(G719C)): 0.35% | Percent of Control (EGFR(G719S)): 0.45% | Percent of Control (EGFR(L747-E749del, A750P)): 0.3% | Percent of Control (EGFR(L747-S752del, P753S)): 12% | Percent of Control (EGFR(L747-T751del,Sins)): 1.4% | Percent of Control (EGFR(L858R)): 1.4% | Percent of Control (EGFR(L858R,T790M)): 6.9% | Percent of Control (EGFR(L861Q)): 0.1% | Percent of Control (EGFR(S752-I759del)): 0% | Percent of Control (EGFR(T790M)): 0.15% | Percent of Control (EGFR): 0% | Percent of Control (EPHB6): 8.6% | Percent of Control (ERBB2): 0% | Percent of Control (ERBB3): 0% | Percent of Control (ERBB4): 0% | Percent of Control (ERN1): 38% | Percent of Control (FGFR1): 42% | Percent of Control (FGFR2): 42% | Percent of Control (FGFR3(G697C)): 35% | Percent of Control (FGFR3): 45% | Percent of Control (FGR): 10% | Percent of Control (FLT3(D835H)): 18% | Percent of Control (FLT3(D835V)): 1.9% | Percent of Control (FLT3(D835Y)): 44% | Percent of Control (FLT3(ITD)): 55% | Percent of Control (FLT3(ITD,D835V)): 58% | Percent of Control (FLT3(K663Q)): 38% | Percent of Control (FLT3(N841I)): 31% | Percent of Control (FLT3(R834Q)): 54% | Percent of Control (FLT3): 26% | Percent of Control (FLT4): 38% | Percent of Control (FRK): 11% | Percent of Control (FYN): 5.3% | Percent of Control (HCK): 0.3% | Percent of Control (ITK): 6.8% | Percent of Control (KIT(A829P)): 21% | Percent of Control (KIT(L576P)): 42% | Percent of Control (KIT(V559D)): 31% | Percent of Control (KIT): 57% | Percent of Control (LATS2): 66% | Percent of Control (LCK): 0.2% | Percent of Control (LIMK1): 41% | Percent of Control (LOK (STK10)): 41% | Percent of Control (LZK (MAP3K13)): 58% | Percent of Control (MAP3K2): 54% | Percent of Control (MAP3K15): 53% | Percent of Control (MEK1 (MAP2K1)): 14% | Percent of Control (MEK2 (MAP2K2)): 21% | Percent of Control (MEK5 (MAP2K5)): 0.8% | Percent of Control (MET(M1250T)): 56% | Percent of Control (MKK7 (MAP2K7)): 0.7% | Percent of Control (MKNK2): 50% | Percent of Control (NDR2 (STK38L)): 48% | Percent of Control (PDGFRA): 48% | Percent of Control (PDGFRB): 35% | Percent of Control (RET(M918T)): 14% | Percent of Control (RET): 9.3% | Percent of Control (RIPK2): 3.7% | Percent of Control (RIPK5 (DSTYK)): 15% | Percent of Control (SNARK (NUAK2)): 68% | Percent of Control (SRC): 3.2% | Percent of Control (SRMS): 0% | Percent of Control (SRPK1): 54% | Percent of Control (STK35): 55% | Percent of Control (STK36): 60% | Percent of Control (TEC): 1.9% | Percent of Control (TIE2 (TEK)): 58% | Percent of Control (TNK1): 23% | Percent of Control (TNK2): 35% | Percent of Control (TNNI3K): 53% | Percent of Control (TRKA (NTRK1)): 67% | Percent of Control (TRPM6): 54% | Percent of Control (TTK): 40% | Percent of Control (TXK): 3.8% | Percent of Control (VEGFR2 (KDR)): 59% | Percent of Control (WNK2): 65% | Percent of Control (YANK2 (STK32B)): 49% | Percent of Control (YES (YES1)): 2.6% | Percent of Control (ZAK): 38%
